Assay results reported in patent US10519211B2, “Compounds as peptidic GLP1/glucagon/GIP receptor agonists” (SANOFI, priority 2016, dated 2019).
Numbered stars: 1 amine (or outer) side, 2 acyl side, 3 side chain; on linkers, the order of the positions; unused ones are H or OH. Square brackets hold non-standard residues; d marks the D form. Side chains are listed from the residue outwards. Peptide text beside a SMILES is read from it. * marks the point of attachment. γGlu = O=C(O)[C@H](CCC(=O)[*:2])N[*:1]; Palmitoyl = CCCCCCCCCCCCCCCC(=O)*; AEEA = NCCOCCOCC(=O)O; Aib = CC(C)(N)C(=O)O

Columns and labels:
[1] = biological target: T1, human glucagon receptor (hGlucagon R) (Homo sapiens, UniProt P47871); test: cAMP response (HTRF) of HEK-293 cells stably expressing human glucagon receptor; assay type: cell-based; settings: Table 8; cAMP formation
T1 construct: expressed in transfected cells; host or cells: HEK-293
T1 sequence (P47871 26-477): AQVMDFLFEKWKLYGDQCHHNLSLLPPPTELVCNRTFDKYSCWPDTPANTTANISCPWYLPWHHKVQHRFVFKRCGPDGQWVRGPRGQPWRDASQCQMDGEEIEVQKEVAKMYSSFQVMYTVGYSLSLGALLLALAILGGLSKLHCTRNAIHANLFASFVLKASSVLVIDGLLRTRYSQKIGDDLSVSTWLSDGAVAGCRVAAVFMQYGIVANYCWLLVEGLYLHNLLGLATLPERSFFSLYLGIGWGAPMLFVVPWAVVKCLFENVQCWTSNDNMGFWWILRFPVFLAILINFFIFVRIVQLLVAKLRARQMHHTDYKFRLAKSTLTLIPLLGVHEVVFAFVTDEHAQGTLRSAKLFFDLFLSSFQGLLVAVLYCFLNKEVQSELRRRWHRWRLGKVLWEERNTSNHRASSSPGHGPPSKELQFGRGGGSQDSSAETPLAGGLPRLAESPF
Experimental: cAMP content of cells was determined using a kit from Cisbio Corp. (cat. no. 62AM4PEJ) based on HTRF (Homogenous Time Resolved Fluorescence). For preparation, cells were split into T175 culture flasks and grown overnight to near confluency in medium (DMEM/10% FBS). Medium was then removed and cells washed with PBS lacking calcium and magnesium, followed by proteinase treatment with accutase (Sigma-Aldrich cat. no. A6964). Detached cells were washed and resuspended in assay buffer (1×HBSS; 20 mM HEPES, 0.1% BSA, 2 mM IBMX) and cellular density determined. They were then diluted to 400000 cells/ml and 25 μl-aliquots dispensed into the wells of 96-well plates. For measurement, 25 μl of test compound in assay buffer was added to the wells, followed by incubation for 30 minutes at room temperature.
Potencies of peptidic compounds at the GLP-1, glucagon and GIP receptors were determined by exposing cells expressing human glucagon receptor (hGlucagon R), human GIP receptor (hGIP-R) or human GLP-1 receptor (hGLP-1 R) to the listed compounds at increasing concentrations and measuring the formed cAMP as described in Methods.

[2] = Chemical stability assessment (UPLC-UV, relative purity loss); assay type: physicochemical; settings: 1 mg/ml, 25 mM acetate buffer pH 4.5 with m-cresol (buffer system A)
How it was run: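 Peptide at 1 mg/mL (purity-corrected) in 25 mM acetate pH 4.5 with methionine, m-cresol and glycerol, sterile-filtered, stored 28 days at 40° C. Purity measured by UPLC-UV as peptide peak area fraction at start and after storage; value is relative percent purity loss.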

[3] = Solubility assessment (UPLC-UV); assay type: physicochemical; settings: acetate buffer pH 4.5, 2.7 mg/ml m-cresol (buffer system A), target 10 mg/ml
How it was run: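 Peptides at 10 mg/mL (purity-corrected, by UPLC/MS) in 100 mM acetate buffer pH 4.5 with 2.7 mg/ml m-Cresol, gently agitated 1 hour, then centrifuged 15 min at 2500 RCF. Supernatant, diluted 1:10, quantified by UPLC-UV peak area against a reference peptide standard curve, extinction-coefficient corrected.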

[4] = Thioflavin T (ThT) assay for physical stability (fibrillation); assay type: physicochemical; settings: 3 mg/ml, 100 mM acetate pH 4.5 with m-cresol, shaking at 37° C.
How it was run: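 Peptide at 3 mg/ml with 100 μM ThT in 100 mM acetate pH 4.5 with m-cresol, stressed at 37° C by cycles of 10 s shaking at 960 rpm and 50 s rest. Fluorescence read every 20 minutes, eight replicates; lag time in hours.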

[5] = Dynamic light scattering (DLS), hydrodynamic radius as surrogate for interaction parameter kD; assay type: physicochemical
How it was run: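 Rh and diffusion constant measured in triplicate at 1 and 5 mg/ml peptide in 25 mM acetate pH4.5 with methionine, m-cresol and glycerol, at 25°C, 830 nm, 158°. Rh5<Rh1 or D5>D1 taken as kD>0, indicating repulsive interactions.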

SMILES	EC50 [1]	Chemical stability [relative purity loss 28 days 40° C.] (%) at pH 4.5 [2]	solubility at 1 h [3]	Lag time before increase [4]	Delta Rh [nm] = Rh5 − Rh1 ([5]; DLS buffer system A pH 4.5)	Rh1 [nm] c= 1 mg/ml ([5]; hydrodynamic radius, 1 mg/ml, DLS buffer system A pH 4.5, DLS method C, 25° C.)	Rh5 [nm] c = 5 mg/ml ([5]; hydrodynamic radius, 5 mg/ml, DLS buffer system A pH 4.5, DLS method C, 25° C.)
CCCCCCCCCCCCCCCC(=O)N[C@@H](CCC(=O)N[C@@H](CCC(=O)NCCCC[C@H](NC(=O)[C@H](CC(C)C)NC(=O)[C@H](CCCCN)NC(=O)[C@H](CO)NC(=O)[C@H](CC(C)C)NC(=O)[C@H](CC(=O)O)NC(=O)[C@H](CO)NC(=O)[C@@H](NC(=O)[C@H](Cc1ccccc1)NC(=O)[C@@H](NC(=O)CNC(=O)[C@H](CCC(N)=O)NC(=O)C(C)(C)NC(=O)[C@@H](N)Cc1c[nH]cn1)[C@@H](C)O)[C@@H](C)O)C(=O)N[C@@H](CCC(=O)O)C(=O)N[C@@H](CCCCN)C(=O)N[C@@H](CCC(N)=O)C(=O)N[C@@H](CCCNC(=N)N)C(=O)N[C@@H](CCC(N)=O)C(=O)NC(C)(C)C(=O)N[C@@H](CCC(=O)O)C(=O)N[C@@H](Cc1ccccc1)C(=O)N[C@H](C(=O)N[C@@H](CCC(=O)O)C(=O)N[C@@H](Cc1c[nH]c2ccccc12)C(=O)N[C@@H](CC(C)C)C(=O)N[C@@H](CCCCN)C(=O)N[C@@H](C)C(=O)NCC(=O)NCC(=O)N[C@@H](Cc1c[nH]cn1)C(=O)N1CCC[C@H]1C(=O)N[C@@H](CO)C(=O)NC(C)(C)C(=O)N[C@@H](CCCCN)C(=O)N1CCC[C@H]1C(=O)N1CCC[C@H]1C(=O)N1CCC[C@H]1C(=O)N[C@@H](CCCCN)C(N)=O)[C@@H](C)CC)C(=O)O)C(=O)O [SEQ ID NO: 12, H-Aib-Q-G-T-F-T-S-D-L-S-K-L-K[gGlu-gGlu-Palm]-E-K-Q-R-Q-Aib-E-F-I-E-W-L-K-A-G-G-H-P-S-Aib-K-P-P-P-K-NH2]	0.022 nM	5.4%	> 9.3 mg/mL	>45 h	–	–	–
CCCCCCCCCCCCCCCC(=O)NCCOCCOCC(=O)N[C@@H](CCC(=O)N[C@@H](CCC(=O)NCCCC[C@H](NC(=O)[C@H](CC(C)C)NC(=O)[C@H](CCCCN)NC(=O)[C@H](CO)NC(=O)[C@H](CC(C)C)NC(=O)[C@H](CC(=O)O)NC(=O)[C@H](CO)NC(=O)[C@@H](NC(=O)[C@H](Cc1ccccc1)NC(=O)[C@@H](NC(=O)CNC(=O)[C@H](CCC(N)=O)NC(=O)C(C)(C)NC(=O)[C@@H](N)Cc1c[nH]cn1)[C@@H](C)O)[C@@H](C)O)C(=O)N[C@@H](CCC(=O)O)C(=O)N[C@@H](CCCCN)C(=O)N[C@@H](CCC(N)=O)C(=O)N[C@@H](CCCNC(=N)N)C(=O)N[C@@H](CCC(N)=O)C(=O)NC(C)(C)C(=O)N[C@@H](CCC(=O)O)C(=O)N[C@@H](Cc1ccccc1)C(=O)N[C@H](C(=O)N[C@@H](CCC(=O)O)C(=O)N[C@@H](Cc1c[nH]c2ccccc12)C(=O)N[C@@H](CC(C)C)C(=O)N[C@@H](CCCCN)C(=O)N[C@@H](C)C(=O)N[C@H](C)C(=O)NCC(=O)N[C@@H](Cc1c[nH]cn1)C(=O)N1CCC[C@H]1C(=O)N[C@@H](CO)C(=O)NC(C)(C)C(=O)N[C@@H](CCCCN)C(=O)N1CCC[C@H]1C(=O)N1CCC[C@H]1C(=O)N1CCC[C@H]1C(=O)N[C@@H](CCCCN)C(N)=O)[C@@H](C)CC)C(=O)O)C(=O)O [SEQ ID NO: 17, H-Aib-Q-G-T-F-T-S-D-L-S-K-L-K[gGlu-gGlu-AEEA-Palm]-E-K-Q-R-Q-Aib-E-F-I-E-W-L-K-A-dAla-G-H-P-S-Aib-K-P-P-P-K-NH2] (H-H[Aib]QGTFTSDLSKLK([γGlu-γGlu-AEEA-Palmitoyl])EKQRQ[Aib]EFIEWLKA[dA]GHPS[Aib]KPPPK-NH2)	0.022 nM	6.4%	> 9.2 mg/mL	>45 h	−0.5 nm	2.9 nm	2.4 nm
